Data published in US20100291041A1, “BACTERIOPHAGE PREPARATION AND USE” (INNOVATIONS-TRANSFER UPHOFF GMBH & CO. KG, priority 2008, published 2010).

Tests used:
[1] = test system: P. aeruginosa biofilms; settings: combination with ultrasound below 70 kHz; Qian et al. 1997; cited from earlier work
[2] = use in wounds, albumin present; from EP 0 700 249 B1; cited from earlier work
[3] = own microbiological tests
[4] = test system: Pseudomonas aeruginosa; settings: Pseudomonas aeruginosa versus Staphylococcus aureus; from EP 0 700 249 B1; cited from earlier work

Row | Substance | increase in effect versus antibiotic alone [1] | loss of action caused by albumin (in wounds) [2] | loss of action by the factor (effect of albumin) [3] | activity lower by a factor, in comparison with Staphylococcus aureus [4]
1 | gentamicin | > 250% | – | – | –
2 | polyhexamethylene biguanide [polyhexanide] | – | considerable loss of action | about 10 | ~10
